Patent US20120259126A1, “[…]” (UNIVERSITAT HEIDELBERG, priority 2009, published 2012)

Conditions: 24° C.

C1CCOC1.C1CCOC1.C1CCOC1.C1CCOC1.CC(C)(C)c1cc2c(c(C(C)(C)C)c1)O[B-]1(Oc3c-2cc(C(C)(C)C)cc3C(C)(C)C)Oc2c(cc(C(C)(C)C)cc2C(C)(C)C)-c2cc(C(C)(C)C)cc(C(C)(C)C)c2O1.[Li+] [lithium tetrakis(tetrahydrofuran)bis(3,3′,5,5′-tetra-tert-butyl-2,2′-diphenolato)borate(III)]
solubility in pentane (maximum concentrations): at least 21 g/L
